# Results reported in PubChem BioAssay (NCI).
# Values joined by “and” are separate entries in the source; they are usually repeats but may differ in a detail not shown here. Equal entries are not always repeated.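 Exposure lasted 48 hours, with cells grown in 96-well plates and compounds tested at five concentrations. GI50: concentration for 50% inhibition of growth. Definition used: TGI = concentration required for complete inhibition of growth.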
# How the values were obtained:
# Assay in all cases: DTP human tumour cell line panel, 48 h
# ACHN renal = system: ACHN renal
# CAKI-1 renal = system: CAKI-1 renal
# DU-145 prostate = system: DU-145 prostate
# HL-60(TB) leukemia = system: HL-60(TB) leukemia
# HS 578T breast = system: HS 578T breast
# LOX IMVI melanoma = system: LOX IMVI melanoma
# SK-MEL-28 melanoma = system: SK-MEL-28 melanoma
# SK-OV-3 ovarian = system: SK-OV-3 ovarian
# UACC-62 melanoma = system: UACC-62 melanoma
# MCF7 breast = system: MCF7 breast
SMILES,GI50 (ACHN renal) [µM],TGI (ACHN renal) [µM],GI50 (CAKI-1 renal) [µM],TGI (CAKI-1 renal) [µM],GI50 (DU-145 prostate) [µM],TGI (DU-145 prostate) [µM],GI50 (HL-60(TB) leukemia) [µM],TGI (HL-60(TB) leukemia) [µM],GI50 (HS 578T breast) [µM],TGI (HS 578T breast) [µM],GI50 (LOX IMVI melanoma) [µM],TGI (LOX IMVI melanoma),GI50 (SK-MEL-28 melanoma) [µM],TGI (SK-MEL-28 melanoma) [µM],GI50 (SK-OV-3 ovarian) [µM],TGI (SK-OV-3 ovarian) [µM],TGI (UACC-62 melanoma) [µM],GI50 (MCF7 breast) [µM],TGI (MCF7 breast) [µM],GI50 (UACC-62 melanoma) [µM]
C=C1C(=O)O[C@H]2[C@H]1CC/C(Cn1cc(-c3ccsc3)nn1)=C\CC[C@@]1(C)O[C@@H]21,1.32,2.69,1.06,2.25,1.43,2.88,1.91,7,2.82,16,1.28,2.61 µM,1.81,4.02,17.4,31.4,,,,
CC(=O)OC1(C#N)CC2OC1C1N=NN(C(=O)OC(C)(C)C)C21 (configuration not stated),,> 100,,> 31.6,,,,79.4,,,,> 31.6 µM,,35.6,,> 100,42.2,,,
Cc1ccc2c(c1)-c1oc(=O)c(-c3cc4ccccc4oc3=O)cc1C(O)O2 (configuration not stated),10.2,24.4,20.5,46.7,11.6,23.8,,,24,47.7,17.6,31.4 µM,30.2,75.2,,,35.6,31.7,> 100,17.4
COc1c(N2CCN(CN3C(=O)C(=O)c4ccccc43)C(C)C2)c(F)cc2c(=O)c(C(=O)O)cn(C3CC3)c12 (configuration not stated),> 100,> 100,> 100,> 100,49.9,> 100,> 100,> 100,91.2,> 100,71.2,> 100 µM,> 100,> 100,,,> 100,33.8,> 100,47.5
Cc1ccc(-c2cc(=O)c3cc(C)c(C)c(C(=O)O)c3o2)cc1[N+](=O)[O-],,> 100,,> 100,,,,,,,,> 100 µM,,> 100,,> 100,> 100,,,
COC(=O)c1ccc(/C=C/S(=O)(=O)c2ccccc2)cc1,,> 100,,> 100,,,,> 100,,,,> 100 µM,,> 100,,> 100,> 100,,,
CCCCCN(CCCCC)C(=O)[C@H](CCC(=O)OCc1ccccc1)NC(=O)c1cc2ccccc2[nH]1,,> 100,,> 100,,,,> 100,,,,> 100 µM,,> 100,,> 100,> 100,,,
CC(CCC(=O)O)c1ccc(Br)cc1 (configuration not stated),,> 100,,> 100,,,,> 100,,,,> 100 µM,,> 100,,> 100,> 100,,,
N.N.NCCCCCN.O=C([O-])CC(=O)[O-].O=C([O-])CC(=O)[O-].[Pt+4].[Pt+4],66.6,> 100,,,,,39.6,> 100,,,> 100,> 100 µM,> 100,> 100,> 100,> 100,> 100,,,18.7
N/C(=N\N=C\c1ccc(O)c(O)c1)NO,,> 100,,> 100,,,,> 100,,,,> 100 µM,,> 100,,> 100,> 100,,,
CC1(C)Oc2ccccc2[N+]([O-])=C1c1ccccc1,,> 100,,> 100,,,,> 100,,,,,,> 100,,> 100,> 100,,,
CCOc1ccc(N=Cc2ccc3ccccc3n2)cc1,,> 100,,> 100,,,,> 76.8,,,,> 100 µM,,> 100,,> 100,> 100,,,
Fc1ccc2c(c1)cc1ccc3cccc4ccc2c1c34,,> 100,,> 100,,,,> 100,,,,> 100 µM,,> 100,,> 100,> 100,,,
CCOC(=O)NC(=O)c1cn(C2OC(COC(=O)CCCCCCCCC(=O)OCC3OC(n4cc(C(=O)NC(=O)OCC)c(=O)[nH]c4=O)C4OC(C)(C)OC34)C3OC(C)(C)OC32)c(=O)[nH]c1=O (configuration not stated),,> 100,,> 100,,,,> 100,,,,> 100 µM,,> 100,,,> 100,,,
COc1ccc(/C=C2\CCc3ccccc3C2=O)cc1OC,,> 100,,> 100,,,,,,,,,,73.2,,78.9,34.1,,,
COC(=O)[C@H](Cc1cn(C)cn1)NC(=O)[C@@H](NC(=O)Nc1cc(C(F)(F)F)cc(C(F)(F)F)c1)C(C)(C)C,> 10,> 10,> 10,> 10,> 10,> 10,> 10,> 10,,,> 10,> 10 µM,> 10,> 10,> 10,> 10,> 10,> 10,> 10,> 10
Nc1nc(CC2(O)CCCCC2)cc(-c2ccccc2)n1,,> 100,,> 100,,,,47.9,,,,> 55.5 µM,,> 100,,> 100,> 100,,,
CCOC(=O)C(=O)C(/C(=N/N(C)C)C(=O)Nc1ccc(C)cc1C)c1nc2ccccc2[nH]c1=O (configuration not stated),,> 100,,> 100,,,,> 100,,> 100,,> 100 µM,,> 100,,> 100,> 100,,> 100,
O=C(COC(=O)c1cccc2c(=O)c3ccccc3[nH]c12)Nc1ccc(S(=O)(=O)Nc2ncccn2)cc1,,> 100,,> 100,,,,71.3,,,,> 100 µM,,> 100,,> 100,39.7,,,
CCC(C)(C)NS(=O)(=O)c1ccccc1,,> 100,,> 100,,,,> 100,,,,,,> 100,,> 100,> 100,,,
CCCCCCC(O)C(O)CCC(O)C1CCC(CCCCC(O)CC2=CC(C)OC2=O)O1 (configuration not stated),12.4,,17.1,41.6,,,,,,6.98,4.48,5.02 µM and 27.7 µM,26,62.5,,,,10.1,28,

SMILES,GI50 (ACHN renal) [µM],TGI (ACHN renal) [µM],GI50 (CAKI-1 renal) [µM],TGI (CAKI-1 renal) [µM],GI50 (DU-145 prostate) [µM],TGI (DU-145 prostate) [µM],GI50 (HL-60(TB) leukemia) [µM],TGI (HL-60(TB) leukemia) [µM],GI50 (HS 578T breast) [µM],TGI (HS 578T breast) [µM],GI50 (LOX IMVI melanoma) [µM],TGI (LOX IMVI melanoma),GI50 (SK-MEL-28 melanoma) [µM],TGI (SK-MEL-28 melanoma) [µM],GI50 (SK-OV-3 ovarian) [µM],TGI (SK-OV-3 ovarian) [µM],TGI (UACC-62 melanoma) [µM],GI50 (MCF7 breast) [µM],TGI (MCF7 breast) [µM],GI50 (UACC-62 melanoma) [µM]
Cc1ccc(-n2c3c(c4c(CN)c(O)ccc42)CCc2ccccc2C3=O)cc1,16.7,31.1,13,26.6,17.7,41.7,,,0.456,5.03,16.3,32.2 µM,23.4,69.4,18.1,34.4,27,17.3,> 100,14
CCN(CC)CCOc1ccc(Cc2ccccc2)cc1,47.2,> 100,29.5,> 100,32.7,> 100,,,13.6,52.4,15.2,33.3 µM,38.5,> 100,44,> 100,> 100,27.6,> 100,30.8
COc1ccc(C[C@H]2NC[C@H](O)[C@H]2OC(C)=O)cc1,,0.122,,0.06,,0.27,,,,0.0604,,0.0409 µM,,0.351,,0.895,0.225,,0.119,
COc1cc2ccc3c4cc(OC)c(OC(C)C)cc4c[n+](C)c3c2cc1OC,,> 100,,> 100,,,,> 100,,,,> 100 µM,,> 100,,> 100,> 100,,,
CN1CCN(c2ccc(-c3cccc(CN4CCOCC4)c3)cc2NC(=O)c2c[nH]c(=O)cc2C(F)(F)F)CC1,40.4,> 100,,,62.5,> 100,36.4,> 100,44.8,> 100,25.1,> 100 µM,37.1,> 100,> 100,> 100,> 100,33.1,> 100,60.1
CCN(CC)/[N+]([O-])=N/OCC(C)O (configuration not stated),,> 100,,> 100,,,,> 100,,,,> 100 µM,,> 100,,> 100,> 100,,,
C[C@@]1(O)CCC[C@H]1n1c(=O)c(C(F)F)cc2cnc(NC3CCN(S(C)(=O)=O)CC3)nc21,1.37,> 100,3.45,> 100,2.18,54.7,1.14,5.38,1.48,7.28,1.28,> 100 µM,2.06,10.9,,,3.31,,,1.04
COc1cc(/C=C2\Cc3ccccc3C2=O)cc(OC)c1OC,,> 100,,> 100,,,,> 100,,,,> 100 µM,,> 100,,> 100,> 100,,,
COc1cc2c(cc1OC)-c1ncc3cc(OC)c(OC)cc3c1C2,> 50,> 50,> 50,> 50,> 50,> 50,16.2,> 50,,,> 50,> 50 µM,> 50,> 50,> 50,> 50,> 50,> 50,> 50,> 50
C/C(=N\NS(=O)(=O)c1c(C)cc(C)cc1C)c1ccc[n+]([O-])n1,,29.9,,18.1,,,,25.1,,,,,,27.6,,> 100,31.5,,,
CC(C)(C)C1CCC(=O)C(C(O)CC2CC(=O)N(c3ccccc3)C(=O)C2)C1 (configuration not stated),,> 100,,> 100,,,,> 100,,,,> 100 µM,,> 100,,> 100,> 100,,,
CC(C)=CCC/C(C)=C/CC/C(C)=C/C1CCC(=O)C1(C)C (configuration not stated),,30.1,,46.8,,,,27,,,,28.9 µM,,54,,81,50.6,,,
CC(=O)Oc1cc(Cl)c(OC(C)=O)c2c(OC(C)=O)c(C)c(O[Si](C)(C)C(C)(C)C)cc12,,,,30.7,,,,8.89,,,,12.9 µM,,11.9,,,,,,
COC(=O)C1=C(O)c2cc3c(cc2[C@H](c2cc(OC)c(OC)c(OC)c2)C1)OCO3,,> 100,,> 100,,,,67.6,,,,> 100 µM,,> 100,,> 100,27.9,,,
COc1c(Cl)[c]([Hg][O]C(C)=O)c(NCC(C)=O)c(OC)[c]1[Hg][O]C(C)=O,17.8,34.5,20.2,35.1,,,19.9,50.1,,,33.4,> 100 µM,13.3,26.2,24.5,45.6,,,,
CCC(=O)Nc1ncnc2ncn(C(=O)CC)c12,,> 100,,> 100,,> 100,,,,> 100,,> 100 µM,,> 100,,> 100,> 100,,> 100,
[N-]=[N+]=NC1C2CC3CC(C2)CC1C3 (configuration not stated),,> 100,,> 100,,,,,,,,> 100 µM,,> 100,,> 100,> 100,,,
Cn1cc2ccccc2c1-c1nc(F)nc(Nc2ccc(N)cc2)n1,,68,,45,,,,> 100,,,,27 µM,,30.6,,33.8,,,,
OCCCCCNc1ccnc2cc(Cl)ccc12,,> 100,,> 100,,,,> 100,,,,,,> 100,,> 100,> 100,,,
Cc1nc(-n2nc(-c3ccccc3)cc2-c2ccccc2)sc1C(=O)/C=C/c1ccc(Cl)cc1,,> 100,,62.7,,,,33.1,,,,27.9 µM,,33.6,,> 100,28.7,,,
O=c1c(-c2nc3ccccc3[nH]2)cc2ccccc2n1Cc1cn(Cc2ccccc2Cl)nn1,1.71,3.27,1.93,4.74,1.72,3.21,6.22,> 100,1.93,5.91,,,1.82,3.35,,,3.57,1.78,3.77,1.73
